This assay addresses Muscarinic acetylcholine receptor M3 (Rattus norvegicus, UniProt P08483).

For two compounds, Ki results are on record in BindingDB's records for PubMed 11303063 (Creighton University, 2001).

Where “and” joins values, the source holds several entries; their conditions need not be identical. Equal values may be shown once.

Sequence of Muscarinic acetylcholine receptor M3 (P08483 whole entry): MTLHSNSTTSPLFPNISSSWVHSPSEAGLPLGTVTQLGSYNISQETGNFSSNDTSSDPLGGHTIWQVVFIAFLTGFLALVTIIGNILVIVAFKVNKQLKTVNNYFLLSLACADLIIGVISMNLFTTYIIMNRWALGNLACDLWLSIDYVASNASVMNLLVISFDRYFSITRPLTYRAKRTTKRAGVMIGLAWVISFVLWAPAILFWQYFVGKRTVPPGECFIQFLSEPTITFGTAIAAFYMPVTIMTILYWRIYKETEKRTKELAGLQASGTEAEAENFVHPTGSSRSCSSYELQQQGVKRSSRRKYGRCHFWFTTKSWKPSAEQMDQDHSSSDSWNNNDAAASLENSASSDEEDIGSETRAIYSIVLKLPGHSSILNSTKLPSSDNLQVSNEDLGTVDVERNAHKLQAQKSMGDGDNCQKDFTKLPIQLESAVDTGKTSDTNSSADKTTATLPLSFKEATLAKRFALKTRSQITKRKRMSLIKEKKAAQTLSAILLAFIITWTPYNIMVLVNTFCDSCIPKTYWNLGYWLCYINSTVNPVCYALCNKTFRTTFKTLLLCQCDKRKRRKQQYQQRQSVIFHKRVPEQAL

In the case of `CN(CCCCCCCCN(C)CCCCCCN(CC(=O)N1c2ccccc2C(=O)Nc2cccnc21)CC(=O)N1c2ccccc2C(=O)Nc2cccnc21)CCCCCCNCC(=O)N1c2ccccc2C(=O)Nc2cccnc21` [NSC_132947], the Ki (as a rule, the equilibrium dissociation constant of an inhibitor or competing ligand from its target) was 220 nM and 180 nM. Take `COc1ccccc1CNCCCCCCNCCCCCCCCNCCCCCCNCc1ccccc1OC` [METHOCTRAMINE]: the inhibition constant (Ki) was 1400 nM and 1700 nM.
